Experimental data reported in patent US9456972B2, “Niacin-peptide having skin whitening activity and use for same” (priority 2011, dated 2016).
Square brackets hold non-standard residues; d marks the D form. Ends that are not written are not given here. Peptide text beside a SMILES is read from it. * marks the point of attachment. Nicotinoyl = O=C(c1cccnc1)*; βAla = NCCC(=O)O

How the values were obtained:
[1] = tested on: melanin movement from melanocytes to keratinocytes; details: cited from earlier work
[2] = tested on: B16F10 cells; assay: Skin whitening effect: melanogenesis at various concentrations in α-MSH-treated melanocytes; assay type: cell-based, mouse; details: 1, 10, 100 and 250 μg/ml, 3 days
Protocol: Cells were treated with various concentrations of niacin-peptide, followed by measuring activity in inhibition of melanogenesis. The mouse melanocytes were cultured at 37° C. in 5% CO2 atmosphere in DMEM supplemented with 10% FBS. The cells were seeded in each well of a 24-well plate (1×10^5 cells/well) and their attachment was verified. Cells were incubated with each test group for 3 days: (a) only solvent as negative control; (b) 20 μg/ml α-MSH as a positive control; (c) 20 μg/ml α-MSH plus 1, 10, 100 and 250 μg/ml niacin-peptides (NA-PG, NAPS, NA-ET and NA-VS); (d) 1, 10, 100 and 250 μg/ml arbutin; and (e) 1, 10, 100 and 250 μg/ml AA2G.
FIG. 5 is images of melanocytes representing treatment effects of NA-PS and PS peptides on melanogenesis decrease rate in a concentration dependent manner.
For analyzing the release amount of melanin, the absorbance values of the culture medium were measured at 490 nm.

[3] = Stability of niacin-peptides in human serum; assay type: in vitro ADME; details: 100 μg/ml, incubated with human serum for 10 hr
Protocol: The prepared solutions were introduced into glass vials and kept to stand at 40° C. for 7, 14, 21, 28, 35, 42 and 60 days. […] The present inventors tested stability of niacin-peptides in human serum. Niacin-peptides (nicotinoyl-PS, 100 μg/ml) or niacin-unlinked peptide (PS, 100 μg/ml) was incubated with human serum for 10 hr, and the amount of residual peptides was measured at every hour. According to the result of the comparative stability experiment, when nicotinoyl-PS (nicotinoyl group linked to the N-terminal of PS peptide) was incubated with the serum for 10 hr, the stability of niacin-peptides was 20% higher than the control group (niacin-unlinked peptide).

[4] = tested on: B16F10 melanocytes; assay: Screening of niacin-peptides: inhibition of melanogenesis against α-MSH; assay type: cell-based, mouse; parameters: key: relative to absorbance (490 nm) of α-MSH-only positive control; details: 20 μg/ml α-MSH plus 10 ng/ml peptide, 3 days, UV 490 nm, α-MSH-only positive control as standard
Protocol: The present inventors screened skin whitening peptides by measuring decrease in melanogenesis using the niacin-peptide libraries prepared in Example 1. B16F10 melanocytes (the Korean Cell Line Bank) were incubated with α-MSH to induce melanogenesis and the inhibition of melanogenesis by the peptide libraries was analyzed. The mouse melanocytes were cultured at 37° C. in 5% CO2 atmosphere in DMEM supplemented with 10% FBS. The cells were seeded in each well of a 96-well plate (5×10^4 cells/well) and their attachment was verified. Afterwards, the control group was incubated with only solvent, the positive control group was incubated with 20 μg/ml of α-MSH and the other wells was incubated with 20 μg/ml of α-MSH and 10 ng/ml of peptides for 3 days.
The inhibition rates of melanogenesis by treatment of each peptide prepared in Example 1 were measured at UV 490 nm. The inhibition rates were calculated using the absorbance value of the positive control group incubated with only α-MSH as a standard, which are summarized in Table 1. The candidate peptides analyzed to show excellent screening results were selected and synthesized in a 100-μmole scale for further experiments. FIG. 1 represents the screening result of niacin-peptides.

Compound	Screening value: Inhibition of melanogenesis against α-MSH [4]	also measured
NC(=O)c1cccnc1 [Niacinamide]	–	decrease of melanin movement from melanocytes to keratinocytes [1]: 68%
OC[C@H]1O[C@@H](Oc2ccc(O)cc2)[C@H](O)[C@@H](O)[C@@H]1O [arbutin]	–	cell number compared with the α-MSH treated group [2]: significantly decreased
O=C(O)[C@H](CO)NC(=O)[C@@H]1CCCN1C(=O)c1cccnc1 [nicotinoyl-PS] (Nicotinoyl-Pro-Ser-OH)	–	stability higher than the control group (niacin-unlinked peptide PS) [3]: 20%
nicotinoyl-AHK (Nicotinoyl-Ala-His-Lys)	0.8	–
nicotinoyl-DKYV	0.87	–
nicotinoyl-EEMQRR-NH2 (Nicotinoyl-EEMQRR-NH2; SMILES CSCC[C@H](NC(=O)[C@H](CCC(=O)O)NC(=O)[C@H](CCC(=O)O)NC(=O)c1cccnc1)C(=O)N[C@@H](CCC(N)=O)C(=O)N[C@@H](CCCNC(=N)N)C(=O)N[C@@H](CCCNC(=N)N)C(N)=O)	0.86	–
nicotinoyl-FWY (Nicotinoyl-Phe-Trp-Tyr)	0.61	–
nicotinoyl-GEPG (Nicotinoyl-GEPG)	0.96	–
nicotinoyl-GHR (Nicotinoyl-Gly-His-Arg)	0.75	–
nicotinoyl-GPHyp	0.89	–
nicotinoyl-GPQGPQ (Nicotinoyl-GPQGPQ)	0.88	–
nicotinoyl-GPRPA-NH2 (Nicotinoyl-GPRPA-NH2; SMILES C[C@H](NC(=O)[C@@H]1CCCN1C(=O)[C@H](CCCNC(=N)N)NC(=O)[C@@H]1CCCN1C(=O)CNC(=O)c1cccnc1)C(N)=O)	0.7	–
nicotinoyl-GQPR (Nicotinoyl-GQPR)	0.83	–
nicotinoyl-GRKG (Nicotinoyl-GRKG)	0.93	–
nicotinoyl-ISELGW (Nicotinoyl-ISELGW)	0.64	–
nicotinoyl-KAKA (Nicotinoyl-KAKA)	0.87	–
nicotinoyl-KLAKK (Nicotinoyl-KLAKK)	0.96	–
nicotinoyl-KRGDR (Nicotinoyl-KRGDR)	0.92	–
nicotinoyl-KRGKP (Nicotinoyl-KRGKP)	0.84	–

Compound	Screening value: Inhibition of melanogenesis against α-MSH [4]	also measured
nicotinoyl-KTTKS (Nicotinoyl-KTTKS)	0.92	–
nicotinoyl-KVARP (Nicotinoyl-KVARP)	0.96	–
nicotinoyl-KVK (Nicotinoyl-Lys-Val-Lys)	1.01	–
nicotinoyl-NP	0.8	–
nicotinoyl-PLG-NH2 (Nicotinoyl-Pro-Leu-Gly-NH2; SMILES CC(C)C[C@H](NC(=O)[C@@H]1CCCN1C(=O)c1cccnc1)C(=O)NCC(N)=O)	0.92	–
nicotinoyl-RKDVY (Nicotinoyl-RKDVY)	0.87	–
nicotinoyl-SIKVAV (Nicotinoyl-SIKVAV)	0.72	–
nicotinoyl-SSNA (Nicotinoyl-SSNA)	0.71	–
nicotinoyl-TYR (Nicotinoyl-Thr-Tyr-Arg)	0.72	–
nicotinoyl-VEPIPY (Nicotinoyl-VEPIPY)	0.81	–
nicotinoyl-VGVAPG (Nicotinoyl-VGVAPG)	0.95	–
nicotinoyl-VPAA (Nicotinoyl-VPAA)	0.85	–
nicotinoyl-YGGFL	0.78	–
nicotinoyl-YGGFM (Nicotinoyl-YGGFM)	0.81	–
nicotinoyl-YGY (Nicotinoyl-Tyr-Gly-Tyr)	0.69	–
nicotinoyl-YGYTGA (Nicotinoyl-YGYTGA)	0.95	–
nicotinoyl-YPFF-NH2 (Nicotinoyl-YPFF-NH2; SMILES NC(=O)[C@H](Cc1ccccc1)NC(=O)[C@H](Cc1ccccc1)NC(=O)[C@@H]1CCCN1C(=O)[C@H](Cc1ccc(O)cc1)NC(=O)c1cccnc1)	0.85	–
nicotinoyl-YT	0.75	–
nicotinoyl-beta-AHSH (Nicotinoyl-[βAla]HSH)	0.82	–
